Data on 16 molecules can be found in patent publication US9062051B2, “Compounds and pharmaceutical compositions thereof for the treatment of proliferative disorders” (GALAPAGOS NV, priority 2014, dated 2015).

In experiment [1] the target is T1, Recombinant EphA7 (Homo sapiens, UniProt Q15375).
T1 construct: purchased Carna 08-126
Nature of the experiment: EphA7 assay (33P incorporation into poly GT, filter plate). The experiment is classed as biochemical. The note with it: EphA7 potency; 0.15 μM ATP; read-out: IC50. The protocol: The principle of the assay consists of the measurement of incorporated ^33P into the substrate poly GT when phosphorylated by the enzyme EphA7 using [^33P]-γ-ATP and ATP. Unincorporated ^33P is removed by loading the samples on a filter plate (using a harvester, Perkin Elmer) and 6 subsequent washing steps. ^33P incorporated in polyGT is measured on a Topcount after addition of microscint to the filter plates (Perkin Elmer).
Recombinant EphA7 (Carna Cat#08-126, 2 ng per well) was incubated with 0.1 mg/mL Poly(Glu,Tyr)sodium salt (4:1), MW 20 000-50 000 (Sigma catalog number P0275) in kinase reaction buffer (10 mM MOPS pH 7.2, 5 mM DTT, 0.01% Triton-X100, 5 mM MnCl2, 0.5 mM Na3VO4, 5 mM beta-glycerolphosphate), 0.15 μM non-radioactive ATP, 0.125 μCi/25 μl ^33P-gamma-ATP (Perkin Elmer, catalog number NEG602K) final concentrations with or without 5 μL containing test compound or vehicle (DMSO, 1% final concentration), in a total volume of 25 μL, in a polypropylene 96-well plate (Greiner, V-bottom). After 90 min at 30° C., reactions were stopped by adding of 25 μL/well of 150 mM phosphoric acid. All of the terminated kinase reaction was transferred to prewashed (75 mM phosphoric acid) 96 well filter plates (Perkin Elmer catalog number 6005177) using a cell harvester (Perkin Elmer). Plates were washed 6 times with 300 μL per well of a 75 mM phosphoric acid solution and the bottom of the plates was sealed. 40 μL/well of Microscint-20 was added, the top of the plates was sealed and readout was performed using the Topcount (Perkin Elmer). The ability of a test compound to inhibit the kinase activity was determined using counts per minutes (cpm) measured by the Topcount as:
(§1) Cpm (cpd): cpm determined for sample with test compound present
(§2) Cpm (control): cpm determined for sample with positive control inhibitor (10 μM staurosporine)
(§3) Cpm (vehicle): cpm determined in the presence of vehicle (1% DMSO)
Dose dilution series were prepared for the compounds enabling the testing of dose-response effects in the EphA7 assay and the calculation of the IC50 for each compound. Each compound was routinely tested at concentration of 20 μM followed by a 1/5 serial dilution, 10 points in a final concentration of 1% DMSO. When potency of compound series increased, more dilutions may be prepared and/or the top concentration may be lowered (e.g. 5 μM, 1 μM).

In experiment [2] the target is T2, Recombinant EphB2 (Homo sapiens, UniProt P29323).
T2 construct: purchased Carna 08-129
T2 sequence (P29323 19-986 isoform P29323-2 limits assumed): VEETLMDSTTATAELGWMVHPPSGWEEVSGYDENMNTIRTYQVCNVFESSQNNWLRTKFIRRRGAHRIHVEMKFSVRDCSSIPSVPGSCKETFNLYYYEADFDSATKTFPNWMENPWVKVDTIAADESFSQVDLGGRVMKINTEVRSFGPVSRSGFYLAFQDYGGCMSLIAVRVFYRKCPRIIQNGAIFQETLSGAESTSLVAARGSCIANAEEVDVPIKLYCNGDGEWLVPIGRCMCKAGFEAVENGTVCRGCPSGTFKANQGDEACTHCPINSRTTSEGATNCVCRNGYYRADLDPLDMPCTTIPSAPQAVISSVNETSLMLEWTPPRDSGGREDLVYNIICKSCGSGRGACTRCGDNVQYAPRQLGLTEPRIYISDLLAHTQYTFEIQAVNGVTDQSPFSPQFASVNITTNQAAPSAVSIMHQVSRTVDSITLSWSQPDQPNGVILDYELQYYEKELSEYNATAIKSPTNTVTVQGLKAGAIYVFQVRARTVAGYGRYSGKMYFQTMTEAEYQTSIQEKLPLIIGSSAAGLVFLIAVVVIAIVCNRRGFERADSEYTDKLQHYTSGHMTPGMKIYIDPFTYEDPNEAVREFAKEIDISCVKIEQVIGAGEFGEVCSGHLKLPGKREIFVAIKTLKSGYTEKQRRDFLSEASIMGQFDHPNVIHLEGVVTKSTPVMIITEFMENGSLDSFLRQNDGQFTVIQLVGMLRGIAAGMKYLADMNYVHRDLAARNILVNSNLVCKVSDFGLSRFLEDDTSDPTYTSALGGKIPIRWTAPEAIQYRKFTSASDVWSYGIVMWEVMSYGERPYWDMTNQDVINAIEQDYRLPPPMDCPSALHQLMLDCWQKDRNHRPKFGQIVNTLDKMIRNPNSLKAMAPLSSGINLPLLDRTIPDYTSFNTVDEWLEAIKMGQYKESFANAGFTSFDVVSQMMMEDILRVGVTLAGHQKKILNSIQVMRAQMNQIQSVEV
Briefly: EphB2 assay (33P incorporation into poly GT, filter plate). The experiment is classed as biochemical. The note with it: read-out: EphB2 potency IC50. As for the experimental part:
The principle of the assay consists of the measurement of incorporated ^33P into the substrate poly GT when phosphorylated by the enzyme EphB2 using [^33P]-γ-ATP and ATP. Unincorporated ^33P is removed by loading the samples on a filter plate (using a harvester, Perkin Elmer) and 6 subsequent washing steps. ^33P incorporated in polyGT is measured on a Topcount after addition of microscint to the filter plates (Perkin Elmer).
Recombinant EphB2 (Carna Cat#08-129, 0.6 ng per well) was incubated with 0.05 mg/mL Poly(Glu,Tyr)sodium salt (4:1), MW 20 000-50 000 (Sigma catalog number P0275) in kinase reaction buffer (10 mM MOPS pH 7.2, 5 mM DTT, 0.01% Triton-X100, 5 mM MnCl2, 0.5 mM Na3VO4, 5 mM beta-glycerolphosphate), 0.5 μM non-radioactive ATP, 0.25 μCi/25 μl ^33P-gamma-ATP (Perkin Elmer, catalog number NEG602K) final concentrations with or without 5 μL containing test compound or vehicle (DMSO, 1% final concentration), in a total volume of 25 μL, in a polypropylene 96-well plate (Greiner, V-bottom). After 45 min at 30° C., reactions were stopped by adding of 25 μL/well of 150 mM phosphoric acid. The experiment was then conducted as described for EphA7. The ability of a test compound to inhibit the kinase activity was determined using counts per minutes (cpm) measured by the Topcount as:
as §1, §2, §3
Dose dilution series were prepared for the compounds enabling the testing of dose-response effects in the EphB2 assay and the calculation of the IC50 for each compound. Each compound was routinely tested at concentration of 20 μM followed by a 1/5 serial dilution, 10 points in a final concentration of 1% DMSO. When potency of compound series increased, more dilutions may be prepared and/or the top concentration may be lowered (e.g. 5 μM, 1 μM).

T1 sequence (Q15375 579-998 limits assumed): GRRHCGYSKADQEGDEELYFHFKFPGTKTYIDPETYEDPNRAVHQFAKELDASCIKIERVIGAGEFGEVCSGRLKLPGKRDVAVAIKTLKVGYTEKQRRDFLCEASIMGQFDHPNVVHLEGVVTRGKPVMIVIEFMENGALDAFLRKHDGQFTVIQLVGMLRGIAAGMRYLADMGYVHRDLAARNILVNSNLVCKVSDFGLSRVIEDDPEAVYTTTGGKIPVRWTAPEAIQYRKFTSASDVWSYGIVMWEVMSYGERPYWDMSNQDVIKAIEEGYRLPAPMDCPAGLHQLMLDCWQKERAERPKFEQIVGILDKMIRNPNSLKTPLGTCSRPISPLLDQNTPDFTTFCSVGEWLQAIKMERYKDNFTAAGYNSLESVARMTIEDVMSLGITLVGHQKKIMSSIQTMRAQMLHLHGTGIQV

As usually defined, the IC50 is the concentration needed to halve the response being measured. In the case of `CCc1n[nH]c2nc(-c3cc(NC(=O)c4cc(OC)cc(C(F)(F)F)c4)cnc3C)ccc12` [Compound 49, N-[5-(3-Ethyl-1H-pyrazolo[3,4-b]pyridin-6-yl)-6-methyl-pyridin-3-yl]-3-methoxy-5-trifluoromethyl-benzamide], the IC50 is above 1000 nM in experiment [1] and above 100 nM in experiment [2].

As for `COc1cc(OC)cc(C(=O)Nc2cnc(C)c(-c3ccc4c(C)n[nH]c4n3)c2)c1` [Compound 17, 3,5-Dimethoxy-N-[6-methyl-5-(3-methyl-1H-pyrazolo[3,4-b]pyridin-6-yl)-pyridin-3-yl]-benzamide], the IC50 in experiment [2] is 25 to 50 nM.

On to `Cc1ccc(NC(=O)c2cccc(C(F)(F)F)c2)cc1-c1ccc2c(C(C)O)n[nH]c2n1` (stereo not drawn) [Compound 35, N-{3-[3-(1-Hydroxy-ethyl)-1H-pyrazolo[3,4-b]pyridin-6-yl]-4-methyl-phenyl}-3-trifluoromethyl-benzamide], for which the values for the IC50 in experiment [1] and in experiment [2] were above 1000 nM and 50 to 100 nM, respectively.

Take `CCc1n[nH]c2nc(-c3cc(NC(=O)c4cc(C)cc(C)c4)cnc3C)ccc12` [Compound 50, N-[5-(3-Ethyl-1H-pyrazolo[3,4-b]pyridin-6-yl)-6-methyl-pyridin-3-yl]-3,5-dimethyl-benzamide]: the IC50 in experiment [1] is 500 to 1000 nM; in experiment [2], above 100 nM.

As for `CCc1n[nH]c2nc(-c3cc(NC(=O)c4cc(C)cc(OCCN5CCOCC5)c4)ccc3C)ccc12` [Compound 20, N-[3-(3-Ethyl-1H-pyrazolo[3,4-b]pyridin-6-yl)-4-methyl-phenyl]-3-methyl-5-(2-morpholin-4-yl-ethoxy)-benzamide], the values for the IC50 in experiment [1] and in experiment [2] were 500 to 1000 nM and 0.01 to 25 nM, respectively.

Take `COc1cc(OC)cc(C(=O)Nc2ccc(C)c(-c3ccc4c(C)n[nH]c4n3)c2)c1` [Compound 11, 3,5-Dimethoxy-N-[4-methyl-3-(3-methyl-1H-pyrazolo[3,4-b]pyridin-6-yl)-phenyl]-benzamide]: the IC50 in experiment [1] is above 1000 nM; in experiment [2], 0.01 to 25 nM.

In the case of `Cc1ccc(C(=O)Nc2cccc(C(F)(F)F)c2)cc1-c1ccc2c(C(O)CN3CCOCC3)n[nH]c2n1` (stereo not drawn) [Compound 5, 3-[3-(1-Hydroxy-2-morpholin-4-yl-ethyl)-1H-pyrazolo[3,4-b]pyridin-6-yl]-4-methyl-N-(3-trifluoromethyl-phenyl)-benzamide], the IC50 in experiment [1] is 250 to 500 nM; in experiment [2] it was above 100 nM.

For the molecule `COc1cc(OC)cc(C(=O)Nc2ccc(C)c(-c3ccc4c(C(C)O)n[nH]c4n3)c2)c1` (stereo not drawn) [Compound 9, N-{3-[3-(1-Hydroxy-ethyl)-1H-pyrazolo[3,4-b]pyridin-6-yl]-4-methyl-phenyl}-3,5-dimethoxy-benzamide], the IC50 in experiment [1] was above 1000 nM; in experiment [2], 25 to 50 nM.

For `Cc1ccc(NC(=O)c2cccc(N(C)C)c2)cc1-c1ccc2c(C(O)CN3CCOCC3)n[nH]c2n1` (stereo not drawn) [Compound 6, 3-Dimethylamino-N-{3-[3-(1-hydroxy-2-morpholin-4-yl-ethyl)-1H-pyrazolo[3,4-b]pyridin-6-yl]-4-methyl-phenyl}-benzamide], the values for the IC50 in experiment [1] and in experiment [2] were above 1000 nM and 25 to 50 nM, respectively.

Consider `COc1cc(OC)cc(C(=O)Nc2ccc(C)c(-c3ccc4c(C(O)CN5CCOCC5)n[nH]c4n3)c2)c1` (stereo not drawn) [Compound 4, N-{3-[3-(1-Hydroxy-2-morpholin-4-yl-ethyl)-1H-pyrazolo[3,4-b]pyridin-6-yl]-4-methyl-phenyl}-3,5-dimethoxy-benzamide], for which the IC50 is above 1000 nM in experiment [1] and 50 to 100 nM in experiment [2].

`CCc1n[nH]c2nc(-c3cc(NC(=O)c4cc(OC)cc(OC)c4)cnc3C)ccc12` [Compound 13, N-[5-(3-Ethyl-1H-pyrazolo[3,4-b]pyridin-6-yl)-6-methyl-pyridin-3-yl]-3,5-dimethoxy-benzamide]: the IC50 in experiment [1] is above 1000 nM; in experiment [2], 50 to 100 nM.

Turning to `Cc1cc(C)cc(C(=O)Nc2ccc(C)c(-c3ccc4c(CO)n[nH]c4n3)c2)c1` [Compound 16, N-[3-(3-Hydroxymethyl-1H-pyrazolo[3,4-b]pyridin-6-yl)-4-methyl-phenyl]-3,5-dimethyl-benzamide], the IC50 is above 1000 nM in experiment [1] and 0.01 to 25 nM in experiment [2].

In the case of `Cc1ccc(NC(=O)c2cccc(C(F)(F)F)c2)cc1-c1ccc2c([C@H](C)O)n[nH]c2n1` [Compound 55, N-{3-[3-((S)-1-Hydroxy-ethyl)-1H-pyrazolo[3,4-b]pyridin-6-yl]-4-methyl-phenyl}-3-trifluoromethyl-benzamide], the IC50 is 500 to 1000 nM in experiment [1] and 0.01 to 25 nM in experiment [2].

Consider `CCc1n[nH]c2nc(-c3cc(NC(=O)c4cc(C)cc(OCCOC)c4)ccc3C)ccc12` [Compound 21, N-[3-(3-Ethyl-1H-pyrazolo[3,4-b]pyridin-6-yl)-4-methyl-phenyl]-3-(2-methoxy-ethoxy)-5-methyl-benzamide], for which the IC50 in experiment [1] was above 1000 nM; in experiment [2], 0.01 to 25 nM.

Consider `Cc1ccc(NC(=O)c2cccc(C(F)(F)F)c2)cc1-c1ccc2c(C(O)CN3CCOCC3)n[nH]c2n1` (stereo not drawn) [Compound 2, N-{3-[3-(1-Hydroxy-2-morpholin-4-yl-ethyl)-1H-pyrazolo[3,4-b]pyridin-6-yl]-4-methyl-phenyl}-3-trifluoromethyl-benzamide], for which the IC50 in experiment [2] is 25 to 50 nM.

Take `Cc1cccc(C(=O)Nc2ccc(C)c(-c3ccc4c(C(O)CN5CCOCC5)n[nH]c4n3)c2)c1` (stereo not drawn) [Compound 3, N-{3-[3-(1-Hydroxy-2-morpholin-4-yl-ethyl)-1H-pyrazolo[3,4-b]pyridin-6-yl]-4-methyl-phenyl}-3-methyl-benzamide]: the figures for the IC50 in experiment [1] and in experiment [2] were above 1000 nM and 50 to 100 nM, respectively.
